Measured values from paper PMC9402538, “Rational design of a sensitivity-enhanced tracer for discovering efficient APC–Asef inhibitors” (Nature Communications, 2022).
Read-outs that look alike come from different tables or passages of the source. Where a SMILES comes first, the peptide text is derived from it. [ ]: non-standard residue; d: D form. The star is where a group is joined. Benzoyl(4-OMe) = COc1ccc(C(=O)*)cc1; Benzoyl(4-Me) = Cc1ccc(C(=O)*)cc1; Oxazole2carbonyl = O=C(c1ncco1)*; Cha = N[C@@H](CC1CCCCC1)C(=O)O; hLeu = CC(C)CC[C@H](N)C(=O)O

Biological target: T1, APC (303–739) (Homo sapiens, UniProt P25054)
T1 sequence (P25054 303-739): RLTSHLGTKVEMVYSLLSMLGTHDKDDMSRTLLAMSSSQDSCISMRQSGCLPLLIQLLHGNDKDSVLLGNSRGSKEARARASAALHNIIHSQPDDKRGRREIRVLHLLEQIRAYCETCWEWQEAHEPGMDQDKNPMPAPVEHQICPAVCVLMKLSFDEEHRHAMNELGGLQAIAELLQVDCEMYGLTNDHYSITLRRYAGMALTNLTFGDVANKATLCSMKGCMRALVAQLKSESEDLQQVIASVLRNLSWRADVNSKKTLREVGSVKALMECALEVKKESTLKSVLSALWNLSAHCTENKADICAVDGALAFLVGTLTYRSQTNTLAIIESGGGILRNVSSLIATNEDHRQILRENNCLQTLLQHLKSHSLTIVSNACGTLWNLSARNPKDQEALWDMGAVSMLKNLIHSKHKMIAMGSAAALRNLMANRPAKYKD
Test: FP competitive assay using tracer 7
Assay type: binding
Protocol: FITC-labeled tracer peptides were obtained from Changzhou Kanglong Biotech Ltd. (Changzhou, Jiangsu, China). […]. The FP signal changes upon tracer binding were measured after 1.5 h of incubation using a Synergy neo microplate reader (BioTek Instruments, Inc.) and plotted against the protein concentration. The corresponding EC50 values were generated by fitting the curves with a nonlinear regression model. […]. To make a working solution, APC (303–739) was diluted in FP buffer (50 mM HEPES, pH 7.5, 300 mM NaCl, 1 mM EDTA, 1 mM DTT). The diluted APC protein (91 μL) was combined with a serial dilution of peptides (4 μL) and incubated at room temperature for 1 h, followed by the addition of 5 μL of 400 nM tracer 7. The FP signals were measured after 1.5 h of incubation at room temperature using a Synergy neo microplate reader. Three controls were included on each plate, i.e., blank (without protein and tracer), 100% inhibition (free tracer only), and 0% inhibition (protein/tracer complex only) controls. All experiments were performed in triplicate. The IC50 values of peptides were calculated by nonlinear regression analysis using GraphPad Prism 7.0 software.

[1] = tracer 7, mean of three repeats, read-out: IC50 mean
[2] = tracer 7, read-out: IC50 Repeat 1
[3] = tracer 7, read-out: IC50 Repeat 2
[4] = tracer 7, read-out: IC50 Repeat 3

COc1ccc(C(=O)N[C@@H](C)C(=O)NCC(=O)N[C@@H](CCC(=O)O)C(=O)N[C@@H](CO)C(=O)N[C@@H](CC2CCCCC2)C(=O)N[C@@H](Cc2ccc(O)cc2)C(=O)N[C@@H](CCC(=O)O)C(N)=O)cc1 [MAI-520] ({Benzoyl(4-OMe)}-AGES[Cha]YE-NH2)
IC50 [1]: 0.0509 µM | IC50 [2]: 0.0544 µM | IC50 [3]: 0.0551 µM | IC50 [4]: 0.0432 µM

Cc1ccc(C(=O)N[C@@H](C)C(=O)NCC(=O)N[C@@H](CCC(=O)O)C(=O)N[C@@H](CO)C(=O)N[C@@H](CC(C)C)C(=O)N[C@@H](Cc2ccc(O)cc2)C(=O)N[C@@H](CCC(=O)O)C(N)=O)cc1 [MAI-515] ({Benzoyl(4-Me)}-AGESLYE-NH2)
IC50 (Repeat 1, Table 3 source data, read-out: IC50(μM) Repeat 1): 0.261 µM | IC50 (Repeat 2, Table 3 source data, read-out: IC50(μM) Repeat 2): 0.204 µM | IC50 (Repeat 3, Table 3 source data, read-out: IC50(μM) Repeat 3): 0.254 µM | IC50 (mean of 3 repeats, Table 3 source data, read-out: IC50(μM) mean): 0.239 µM

CC(C)C[C@H](NC(=O)[C@H](CO)NC(=O)[C@H](CCC(=O)O)NC(=O)CNC(=O)[C@H](C)NC(=O)c1ncco1)C(=O)N[C@@H](Cc1ccc(O)cc1)C(=O)N[C@@H](CCC(=O)O)C(N)=O [MAI-455] (Oxazole2carbonyl-AGESLYE-NH2)
IC50 (Supplementary Table 4, read-out: IC50, Tracer 7): 0.86 ± 0.03 µM

COc1ccc(C(=O)N[C@@H](C)C(=O)NCC(=O)N[C@@H](CCC(=O)O)C(=O)N[C@@H](CO)C(=O)N[C@@H](CCC(C)C)C(=O)N[C@@H](Cc2ccc(O)cc2)C(=O)N[C@@H](CCC(=O)O)C(N)=O)cc1 [MAI-517] ({Benzoyl(4-OMe)}-AGES[hLeu]YE-NH2)
IC50 [1]: 0.0247 µM | IC50 [2]: 0.0255 µM | IC50 [3]: 0.0285 µM | IC50 [4]: 0.0202 µM
